Experimental data: patent US10138238B2, “Pesticidally active polycyclic derivatives with sulfur containing substituents” (Syngenta Participations AG, priority 2015, dated 2018)

What was measured:
Assay type in all cases: in vivo
[1] = system: Diabrotica balteata (Corn Root Worm); assay: Example B13: Breakpoint (BP80) against Diabrotica balteata; conditions: lowest concentration which gives 80% larval mortality; larval feeding/contact
Experimental: (§1) Maize sprouts placed onto an agar layer in 24-well microtiter plates were treated with aqueous test solutions prepared from 10'000 ppm DMSO stock solutions by spraying. After drying, the plates were infested with L2 larvae (6 to 10 per well). The samples were assessed for mortality and growth inhibition in comparison to untreated samples 4 days after infestation. The following compounds gave an effect of at least 80% in at least one of the two categories (mortality or growth inhibition) at an application rate of 200 ppm: P1, P2, P3, P4, P5, P6, P7, P8, P9, P10, P11, P12, P13, P14, and P15.
(§2) Insecticidal action against Diabrotica balteata (Corn root worm), Plutella xylostella (Diamond black moth), and Spodoptera littoralis (Egyptian cotton leaf worm). The tests were carried out as described in biological examples B2, B6 and B7, respectively, with the larval feeding/contact activity being reported as Breakpoint (BP80) values in parts per million (i.e. the lowest concentration which gives 80% larval mortality).

[2] = system: Plutella xylostella (Diamond Back Moth); assay: Example B6: Plutella xylostella, artificial diet, L2 larvae; conditions: 120 h, application rate of 200 ppm, 5 days after infestation, read-out: effect in at least one of the two categories (mortality or growth inhibition)
Experimental: (§3) 24-well microtiter plates with artificial diet were treated with aqueous test solutions prepared from 10'000 ppm DMSO stock solutions by pipetting. After drying, the plates were infested with L2 larvae (10 to 15 per well). The samples were assessed for mortality and growth inhibition in comparison to untreated samples 5 days after infestation. The following compounds gave an effect of at least 80% in at least one of the two categories (mortality or growth inhibition) at an application rate of 200 ppm: P1, P2, P3, P4, P6, P8, P9, P10, P11, P12, P13, P14 and P15.

[3] = system: Euschistus heros (Neotropical Brown Stink Bug); assay: Example B3: Euschistus heros, soybean leaves, N2 nymphs; conditions: 120 h, application rate of 200 ppm, 5 days after infestation, read-out: effect in at least one of the two categories (mortality or growth inhibition)
Experimental: Soybean leaves on agar in 24-well microtiter plates were sprayed with aqueous test solutions prepared from 10'000 ppm DMSO stock solutions. After drying the leaves were infested with N2 nymphs. The samples were assessed for mortality and growth inhibition in comparison to untreated samples 5 days after infestation. The following compounds gave an effect of at least 80% in at least one of the two categories (mortality or growth inhibition) at an application rate of 200 ppm: • P1, P3, P8, P9, P10, P13, P14, and P15

[4] = system: Spodoptera littoralis (Egyptian Cotton Leaf Worm); assay: Example B7: Spodoptera littoralis, cotton leaf discs, L1 larvae; conditions: foliar, 72 h, application rate of 200 ppm, 3 days after infestation
Experimental: (§4) Cotton leaf discs were placed onto agar in 24-well microtiter plates and sprayed with aqueous test solutions prepared from 10'000 ppm DMSO stock solutions. After drying the leaf discs were infested with five L1 larvae. The samples were assessed for mortality, anti-feeding effect, and growth inhibition in comparison to untreated samples 3 days after infestation. Control of Spodoptera littoralis by a test sample is given when at least one of the categories mortality, anti-feedant effect, and growth inhibition is higher than the untreated sample.

[5] = system: Diabrotica balteata (Corn Root Worm); assay: Example B2: Diabrotica balteata, maize sprouts, L2 larvae; conditions: 96 h, application rate of 200 ppm, 4 days after infestation, read-out: effect in at least one of the two categories (mortality or growth inhibition)
Experimental: as §1

[6] = system: Spodoptera littoralis (Egyptian Cotton Leaf Worm); assay: Example B13: Breakpoint (BP80) against Spodoptera littoralis; conditions: lowest concentration which gives 80% larval mortality; larval feeding/contact
Experimental: as §4, §2

[7] = system: Plutella xylostella (Diamond black moth); assay: Example B13: Breakpoint (BP80) against Plutella xylostella; conditions: lowest concentration which gives 80% larval mortality; larval feeding/contact
Experimental: as §3, §2

[8] = system: Diabrotica balteata (Corn Root Worm); assay: Example B14: Breakpoint (BP80) against Diabrotica balteata; conditions: lowest concentration which gives 80% larval mortality; Table B14
Experimental: as §1
Insecticidal action against Diabrotica balteata (Corn root worm). The test were carried out as described in biological example B6 with the larval feeding contact activity being reported as Breakpoint (BP80) values in parts per million (i.e. the lowest concentration which gives 80% larval mortality).

[9] = system: Bemisia tabaci (Cotton White Fly); assay: Example B1: Bemisia tabaci feeding/contact activity; conditions: 144 h, application rate of 200 ppm, adult white flies, 6 days after incubation
Experimental: Cotton leaf discs were placed on agar in 24-well microtiter plates and sprayed with aqueous test solutions prepared from 10'000 ppm DMSO stock solutions. After drying the leaf discs were infested with adult white flies. The samples were checked for mortality 6 days after incubation.

[10] = system: Tetranychus urticae (Two-Spotted Spider Mite); assay: Example B9: Tetranychus urticae feeding/contact activity; conditions: 192 h, application rate of 200 ppm, mixed population (mobile stages), 8 days after infestation, read-out: mortality
Experimental: Bean leaf discs on agar in 24-well microtiter plates were sprayed with aqueous test solutions prepared from 10'000 ppm DMSO stock solutions. After drying the leaf discs were infested with a mite population of mixed ages. The samples were assessed for mortality on mixed population (mobile stages) 8 days after infestation.

[11] = system: Spodoptera littoralis (Egyptian Cotton Leaf Worm); assay: Example B8: Spodoptera littoralis systemic activity; conditions: 144 h, test rate of 12.5 ppm, lettuce, 6 days after infestation, read-out: effect in at least one of the three categories (mortality, anti-feeding, or growth inhibition)
Description: Test compounds were applied by pipette from 10'000 ppm DMSO stock solutions into 24-well plates and mixed with agar. Lettuce seeds were placed onto the agar and the multi well plate was closed by another plate which contained also agar. After 7 days the compound was absorbed by the roots and the lettuce grew into the lid plate. The lettuce leaves were then cut off into the lid plate. Spodoptera eggs were pipetted through a plastic stencil onto a humid gel blotting paper and the lid plate was closed with it. The samples were assessed for mortality, anti-feedant effect and growth inhibition in comparison to untreated samples 6 days after infestation. The following compounds gave an effect of at least 80% in at least one of the three categories (mortality, anti-feeding, or growth inhibition) at a test rate of 12.5 ppm: • P10, P13, P14 and P15.

[12] = system: Myzus persicae (Green Peach Aphid); assay: Example B4: Myzus persicae feeding/contact activity; conditions: 144 h, application rate of 200 ppm, 6 days after infestation
Experimental: Sunflower leaf discs were placed onto agar in a 24-well microtiter plate and sprayed with aqueous test solutions prepared from 10'000 ppm DMSO stock solutions. After drying, the leaf discs were infested with an aphid population of mixed ages. The samples were assessed for mortality 6 days after infestation.

CCS(=O)(=O)c1ccc(-c2ccc(Cl)cc2)nc1-c1nc2cc(C(F)(F)F)ncc2n1C [Compound P1, 2-[6-(4-chlorophenyl)-3-ethylsulfonyl-2-pyridyl]-3-methyl-6-(trifluoromethyl)imidazo[4,5-c]pyridine]
12 ppm: BP80 Values Spodoptera littoralis [6] | BP80 Values Plutella xylostella [7]
3 ppm: BP80 Values Diabrotica balteata [1]
≥ 80%: percent effect (mortality or growth inhibition) at 200 ppm [2] | percent effect (mortality or growth inhibition) at 200 ppm [3] | percent control (mortality, anti-feedant effect or growth inhibition) at 200 ppm [4] | percent effect (mortality or growth inhibition) at 200 ppm [5]

CCS(=O)(=O)c1ccc(/C=C/c2ccccc2C(F)(F)F)nc1-c1nc2cc(C(F)(F)F)ncc2n1C [Compound P2, 2-[3-ethylsulfonyl-6-[(E)-2-[2-(trifluoromethyl)phenyl]vinyl]-2-pyridyl]-3-methyl-6-(trifluoromethyl)imidazo[4,5-c]pyridine]
≥ 80%: percent effect (mortality or growth inhibition) at 200 ppm [2] | percent control (mortality, anti-feedant effect or growth inhibition) at 200 ppm [4] | percent effect (mortality or growth inhibition) at 200 ppm [5]

CCS(=O)(=O)c1cc(C(F)(F)F)c(-c2ccc(C(F)(F)F)cc2)nc1-c1nc2cc(C(F)(F)F)ncc2n1C [Compound P4, 2-[3-ethylsulfonyl-5-(trifluoromethyl)-6-[4-(trifluoromethyl)phenyl]-2-pyridyl]-3-methyl-6-(trifluoromethyl)imidazo[4,5-c]pyridine]
≥ 80%: percent effect (mortality or growth inhibition) at 200 ppm [2] | percent control (mortality, anti-feedant effect or growth inhibition) at 200 ppm [4] | percent effect (mortality or growth inhibition) at 200 ppm [5]
10 ppm: BP80 Values Diabrotica balteata [8]

CCS(=O)(=O)c1cc(C(F)(F)F)c(-c2cccc(C(F)(F)F)c2)nc1-c1nc2cc(C(F)(F)F)ncc2n1C [Compound P5]
10 ppm: BP80 Values Diabrotica balteata [8]
≥ 80%: percent control (mortality, anti-feedant effect or growth inhibition) at 200 ppm [4] | percent effect (mortality or growth inhibition) at 200 ppm [5]

CCS(=O)(=O)c1cc(C(F)(F)F)c(-c2ccccc2Cl)nc1-c1nc2cc(C(F)(F)F)ncc2n1C [Compound P6]
≥ 80%: percent effect (mortality or growth inhibition) at 200 ppm [2] | percent control (mortality, anti-feedant effect or growth inhibition) at 200 ppm [4] | percent effect (mortality or growth inhibition) at 200 ppm [5]

CCS(=O)(=O)c1ccc(-c2cc(F)cc(F)c2)nc1-c1nc2cc(C(F)(F)F)ncc2n1C [Compound P8, 2-[6-(3,5-difluorophenyl)-3-ethylsulfonyl-2-pyridyl]-3-methyl-6-(trifluoromethyl)imidazo[4,5-c]pyridine]
≥ 80%: percent effect (mortality or growth inhibition) at 200 ppm [2] | percent effect (mortality or growth inhibition) at 200 ppm [3] | percent control (mortality, anti-feedant effect or growth inhibition) at 200 ppm [4] | percent effect (mortality or growth inhibition) at 200 ppm [5]

CCS(=O)(=O)c1ccc(-n2ccc(C(F)(F)F)n2)nc1-c1nc2cc(SC(F)(F)F)ncc2n1C [Compound P9, 2-[3-ethylsulfonyl-6-[3-(trifluoromethyl)pyrazol-1-yl]-2-pyridyl]-3-methyl-6-(trifluoromethylsulfanyl)imidazo[4,5-c]pyridine]
≥ 80%: percent effect (mortality or growth inhibition) at 200 ppm [2] | percent effect (mortality or growth inhibition) at 200 ppm [3] | percent control (mortality, anti-feedant effect or growth inhibition) at 200 ppm [4] | mortality at 200 ppm [9] | percent effect (mortality or growth inhibition) at 200 ppm [5]

CCS(=O)(=O)c1ccc(-n2ccc(Cl)n2)nc1-c1nc2cc(SC(F)(F)F)ncc2n1C [Compound P11]
≥ 80%: percent effect (mortality or growth inhibition) at 200 ppm [2] | percent control (mortality, anti-feedant effect or growth inhibition) at 200 ppm [4] | percent effect (mortality or growth inhibition) at 200 ppm [5]

CCS(=O)(=O)c1ccc(C2CC2)nc1-c1nc2cc(Br)ncc2n1C [Compound P12, 6-bromo-2-(6-cyclopropyl-3-ethylsulfonyl-2-pyridyl)-3-methyl-imidazo[4,5-c]pyridine]
≥ 80%: percent effect (mortality or growth inhibition) at 200 ppm [2] | percent control (mortality, anti-feedant effect or growth inhibition) at 200 ppm [4] | percent effect (mortality or growth inhibition) at 200 ppm [5]

CCS(=O)(=O)c1ccc(C2CC2)nc1-c1nc2cc(SC(F)(F)F)ncc2n1C [Compound P13, 2-(6-cyclopropyl-3-ethylsulfonyl-2-pyridyl)-3-methyl-6-(trifluoromethylsulfanyl)imidazo[4,5-c]pyridine]
≥ 80%: mortality at 200 ppm [10] | percent effect (mortality or growth inhibition) at 200 ppm [2] | percent effect (mortality, anti-feeding or growth inhibition) at 12.5 ppm [11] | percent effect (mortality or growth inhibition) at 200 ppm [3] | percent control (mortality, anti-feedant effect or growth inhibition) at 200 ppm [4] | mortality at 200 ppm [9] | percent effect (mortality or growth inhibition) at 200 ppm [5] | mortality at 200 ppm [12]

CCS(=O)(=O)c1ccc(C2CC2)nc1-c1nc2cc(C(F)(F)F)nnc2n1C [Compound P14, 6-(6-cyclopropyl-3-ethylsulfonyl-2-pyridyl)-7-methyl-3-(trifluoromethyl)imidazo[4,5-c]pyridazine]
≥ 80%: percent effect (mortality or growth inhibition) at 200 ppm [2] | percent effect (mortality, anti-feeding or growth inhibition) at 12.5 ppm [11] | percent effect (mortality or growth inhibition) at 200 ppm [3] | percent control (mortality, anti-feedant effect or growth inhibition) at 200 ppm [4] | mortality at 200 ppm [9] | percent effect (mortality or growth inhibition) at 200 ppm [5] | mortality at 200 ppm [12]

CCS(=O)(=O)c1ccc(C2CC2)nc1-c1nc2cc(C(F)(F)F)ncc2n1C [Compound P15, 2-(6-cyclopropyl-3-ethylsulfonyl-2-pyridyl)-3-methyl-6-(trifluoromethyl)imidazo[4,5-c]pyridine]
≥ 80%: percent effect (mortality or growth inhibition) at 200 ppm [2] | percent effect (mortality, anti-feeding or growth inhibition) at 12.5 ppm [11] | percent effect (mortality or growth inhibition) at 200 ppm [3] | percent control (mortality, anti-feedant effect or growth inhibition) at 200 ppm [4] | percent effect (mortality or growth inhibition) at 200 ppm [5] | mortality at 200 ppm [12]

CCS(=O)(=O)c1cc(C(F)(F)F)cnc1-c1nc2cc(C(F)(F)F)ncc2n1C [Compound V12.01, reference compound]
16 ppm: BP80 Values Diabrotica balteata [8]

CCS(=O)(=O)c1cccnc1-c1nc2cc(C(F)(F)F)ncc2n1C [Compound V12.03, reference compound]
16 ppm: BP80 Values Diabrotica balteata [1]
250 ppm: BP80 Values Spodoptera littoralis [6] | BP80 Values Plutella xylostella [7]
